According to US20160297851A1, “BROAD SPECTRUM […]” (priority 2012, published 2016):
Converted amounts (≈) assume the structure as drawn. Like-named read-outs stand apart in the source and are kept apart here.

Tests used:
[1] = system: lepB(P84L) P. aeruginosa PAO1; experiment: microbe, parasite or virus in culture; format: cell-based, Pseudomonas aeruginosa; settings: for minimal inhibitory concentration (MIC): Table 3, P3 position derivatives, unit not given
[2] = system: lepB(P84L) E. coli MG1655; experiment: microbe, parasite or virus in culture; format: cell-based, Escherichia coli; settings: for minimal inhibitory concentration (MIC): Table 3, P3 position derivatives, unit not given
[3] = system: wild type S. epidermidis RP62A; experiment: microbe, parasite or virus in culture; format: cell-based, Staphylococcus epidermidis; settings: for minimal inhibitory concentration (MIC): Table 3, P3 position derivatives, unit not given; for MIC: Sensitive strain (SPase without the resistance-conferring Pro)
[4] = system: S. epidermidis, S. aureus, E. coli, and P. aeruginosa; experiment: MIC panel; format: cell-based; settings: all bacteria / organisms tested
[5] = system: lepB(P29S) S. aureus 8325; experiment: microbe, parasite or virus in culture; format: cell-based, Staphylococcus aureus; settings: for minimal inhibitory concentration (MIC): Table 3, P3 position derivatives, unit not given; for MIC: Sensitive (genetically sensitized) strain
[6] = system: Brevibacillus brevis ATCC 8246; experiment: microbe, parasite or virus in culture; format: cell-based; settings: ATCC8246
[7] = system: Gram-negative strains (E. coli, P. aeruginosa); experiment: MIC panel; format: cell-based; settings: Gram-negative pathogens
wild type E. coli MG1655 = experiment: microbe, parasite or virus in culture; format: cell-based, Escherichia coli
[8] = system: Gram-positive bacteria (S. epidermidis, S. aureus); experiment: MIC panel; format: cell-based
[9] = system: S. epidermidis ATCC 35984; experiment: MIC of selected compounds; format: cell-based; settings: Table 1
wild type S. aureus 8325 = experiment: microbe, parasite or virus in culture; format: cell-based, Staphylococcus aureus
[10] = system: Corynebacterium efficiens DSM 44549; experiment: microbe, parasite or virus in culture; format: cell-based; settings: Corynebacterium efficiens, DSM44549; read-out: MIC
[11] = system: Rhodococcus equi ATCC 6939; experiment: microbe, parasite or virus in culture; format: cell-based; settings: Rhodococcus (subgen. Prescottella) equi, ATCC6939
[12] = system: Corynebacterium glutamicum DSM 44475; experiment: microbe, parasite or virus in culture; format: cell-based; settings: DSM44475
Lactococcus lactis = experiment: microbe, parasite or virus in culture; format: cell-based; settings: Lactococcus lactis, several values = different isolates/subspecies; read-out: MIC
[13] = system: Rhodococcus opacus DSM 1069; experiment: microbe, parasite or virus in culture; format: cell-based; settings: Rhodococcus opacus, DSM1069; read-out: MIC
[14] = system: Streptococcus pyogenes M1-5448; experiment: microbe, parasite or virus in culture; format: cell-based; settings: Streptococcus pyogenes, M15448; read-out: MIC
[15] = system: Streptococcus pneumoniae R800; experiment: microbe, parasite or virus in culture; format: cell-based; settings: Streptococcus pneumoniae, R800; read-out: MIC
[16] = system: Streptococcus agalactiae COH-1; experiment: microbe, parasite or virus in culture; format: cell-based
[17] = system: P. aeruginosa PAS2006 (SPase P84S); format: cell-based, Pseudomonas aeruginosa
[18] = system: spsB(S29P) S. epidermidis RP62A; experiment: microbe, parasite or virus in culture; format: cell-based, Staphylococcus epidermidis
[19] = system: wild type P. aeruginosa PAO1; experiment: microbe, parasite or virus in culture; format: cell-based, Pseudomonas aeruginosa; settings: Resistant strain (wild type)
[20] = system: S. epidermidis PAS9002 (SPase S31P); format: cell-based, Staphylococcus epidermidis
[21] = system: E. coli PAS0232 (SPase P84S); format: cell-based, Escherichia coli
[22] = Staphylococcus epidermidis, read-out: MIC
[23] = Escherichia coli, MG1655, Resistant strain (wild type), read-out: MIC

With `CCCCCCCCCCCCCCCC(=O)N(C)[C@H](CO)C(=O)N[C@H](C)C(=O)NCC(=O)N(C)[C@@H]1C(=O)N[C@@H](CCCCO)C(=O)N[C@H](C(=O)O)Cc2ccc(O)c(c2)-c2cc1ccc2O` [Compound 32] the “minimal inhibitory concentration (MIC)” value [1] was over 64, the “minimal inhibitory concentration (MIC)” value [2] was over 64 and the “minimal inhibitory concentration (MIC)” value [3] was over 64. For the same molecule, the activity in words [4] was “All activity was lost” and the “minimal inhibitory concentration (MIC)” value [5] was over 64.
For `CCCCCCCCCCCCCCCC(=O)N(C)[C@H](CO)C(=O)N[C@H](C)C(=O)NCC(=O)N(C)[C@@H]1C(=O)N[C@@H](C)C(=O)N[C@H](C(=O)O)Cc2cc(N)c(O)c(c2)-c2cc1ccc2O` [Compound 36], the MIC [6] was over 64 µg/mL, the “fold loss of activity relative to the parent compounds” value [7] was 8 fold and the MIC [3, 22] was 8 µg/mL (≈ 8.93 µM). The MIC (wild type E. coli MG1655; [23]) was over 64 µg/mL and the “fold loss of activity relative to the parent compounds” value [8] was 32 fold.
In the case of arylomycin A2 [reference compound], the MIC [9] is reported as 1 µM, the MIC (wild type S. aureus 8325; Table 1, S. aureus 8325) is reported as over 128 µM and the MIC (wild type E. coli MG1655; Table 1, E. coli MG1655) is reported as over 128 µM.
With `CCCCCCCCCCCCCCCC(=O)N(C)[C@H](CO)C(=O)N[C@H](C)C(=O)NCC(=O)N(C)[C@@H]1C(=O)N[C@@H](CCCO)C(=O)N[C@H](C(=O)O)Cc2ccc(O)c(c2)-c2cc1ccc2O` [Compound 31] the “minimal inhibitory concentration (MIC)” value [1] was over 64, the “minimal inhibitory concentration (MIC)” value [2] was over 64 and the “minimal inhibitory concentration (MIC)” value [3] was over 64. The activity in words [4] was “All activity was lost” and the “minimal inhibitory concentration (MIC)” value [5] was over 64.
`CCCCCCCCCCCCCCCC(=O)N(C)[C@H](CO)C(=O)N[C@H](C)C(=O)NCC(=O)N(C)[C@@H]1C(=O)N[C@@H](C)C(=O)N[C@H](C(=O)O)Cc2cc(c(O)c([N+](=O)[O-])c2)-c2cc1ccc2O` [Arylomycin B-C16, arylomycin B-C16] was tested, and the activity in words [1] was “has activity”, the MIC ([1]; Pseudomonas aeruginosa, PAO1, Sensitive (genetically sensitized) strain, read-out: MIC) was 4 µg/mL and the MIC [10] was 16 µg/mL (≈ 17.3 µM). The MIC [11] was 32 µg/mL (≈ 34.6 µM), the MIC [12] was 2 µg/mL (≈ 2.16 µM) and the MIC (Lactococcus lactis) was 32 µg/mL (≈ 34.6 µM). The MIC [6] was over 64 µg/mL, the MIC [13] was 4 µg/mL (≈ 4.32 µM) and the activity in words [2] was “has activity”. For the same molecule, the MIC ([2]; Escherichia coli, MG1655, Sensitive (genetically sensitized) strain, read-out: MIC) was 2 µg/mL, the activity in words [3] was “potent activity” and the MIC [3, 22] was 0.13 µg/mL (≈ 0.14 µM). For the same molecule, the activity in words (wild type E. coli MG1655) was “no activity”, the MIC (wild type E. coli MG1655; [23]) was over 64 µg/mL and the MIC [14] was 4 µg/mL (≈ 4.32 µM). The MIC [15] was 16 µg/mL (≈ 17.3 µM), the “fold more activity than arylomycin C16” value [16] was “greater than 16 fold” and the MIC ([16]; Streptococcus agalactiae, COH1) was 8 µg/mL (≈ 8.64 µM). For the same molecule, the activity in words [5] was “has activity” and the MIC ([5]; Staphylococcus aureus, read-out: MIC) was 8 µg/mL.
arylomycin C16 gave an MIC [17] of 8 µg/mL, an MIC (wild type S. aureus 8325; Resistant strain (wild type)) of over 128 µg/mL and an MIC [18] of 8 µg/mL. The MIC [19] was over 128 µg/mL, the MIC [3] was 0.25 µg/mL and the MIC (wild type E. coli MG1655; Resistant strain (wild type)) was over 128 µg/mL. It also gave an MIC [20] of over 128 µg/mL, an MIC [5] of 2 µg/mL and an MIC [21] of 2 µg/mL.
